Data on 11 compounds can be found in US20240389587A1, “COMPOSITIONS AND METHODS FOR CONTROLLING PHYTOPATHOGENIC INFECTIONS” (INSTITUT NATIONAL DE RECHERCHE POUR L'AGRICULTURE, …, priority 2021, published 2024).

Like-named read-outs stand apart in the source and are kept apart here.

The test system of test [1] is Alternaria brassicicola. As to the kind of experiment: In vitro nephelometric fungal growth test. Conditions: for Cmax (concentration inducing at most 20% inhibition of fungal growth) / CTP (retained non-fungicidal concentration applied in planta): A. brassicicola; for CTP (retained non-fungicidal concentration applied in planta): inferior to MIG50 and inferior or equal to Cmax; for IC50: Alternaria brassicicola, 33 h, read-out: MIG50 (concentration inducing 50% inhibition of fungal growth).
Method: (§1) For inoculum preparation, conidia of A. brassicicola or B. cinerea were collected from solid culture by adding water followed by gentle scraping of the agar plate. […] Growth was monitored by nephelometric reader (NEPHELOstar Galaxy®, BMG Labtech, Offenburg, Germany) at 25° C., with orbital shaking 5 min before measurement for 33 h. Turbidity was registered every 10 mins with a gain value of 75. Each well was measured during 0.1 s with a laser beam focus of 2.5 mm. A triplicate was realized for each condition. Area under the growth curve was determined by an Excel matrix developed in the lab. Area under the growth curve was normalized by area of positive control (filamentous fungi+DMSO less compound) and PDB medium to obtain a growth percentage.

Test [2] deals with Botrytis cinerea. Put plainly: In vitro nephelometric fungal growth test. Conditions: for CTP (retained non-fungicidal concentration applied in planta): inferior to MIG50 and inferior or equal to Cmax; for IC50: Botrytis cinerea, 33 h, read-out: MIG50 (concentration inducing 50% inhibition of fungal growth).
Method: as §1
In test [3] the target is T1, IRE1 (Saccharomyces cerevisiae, UniProt P32361).
T1 construct: endogenous in cells
Put plainly: IRE1 inhibitors screening (inhibition of transcriptional activator HAC1 in yeast). It counts as cell-based. The conditions noted are these: for IC50: read-out: IRE1 IC50. An excerpt: A series of natural products were screened for their capacity to inhibit the UPR pathway via the inhibition of IRE1 in an in vitro screening test, based inhibition of the transcriptional activator HAC1 in Saccharomyces cerevisiae (the IRE1 protein is the ‘sole effector of the UPR pathway in fungi).

The mark [4] stands for this setting: in vitro screening, IRE1 activity of less than 80% = retained as IRE1 inhibitor.

T1 sequence (P32361 19-1115): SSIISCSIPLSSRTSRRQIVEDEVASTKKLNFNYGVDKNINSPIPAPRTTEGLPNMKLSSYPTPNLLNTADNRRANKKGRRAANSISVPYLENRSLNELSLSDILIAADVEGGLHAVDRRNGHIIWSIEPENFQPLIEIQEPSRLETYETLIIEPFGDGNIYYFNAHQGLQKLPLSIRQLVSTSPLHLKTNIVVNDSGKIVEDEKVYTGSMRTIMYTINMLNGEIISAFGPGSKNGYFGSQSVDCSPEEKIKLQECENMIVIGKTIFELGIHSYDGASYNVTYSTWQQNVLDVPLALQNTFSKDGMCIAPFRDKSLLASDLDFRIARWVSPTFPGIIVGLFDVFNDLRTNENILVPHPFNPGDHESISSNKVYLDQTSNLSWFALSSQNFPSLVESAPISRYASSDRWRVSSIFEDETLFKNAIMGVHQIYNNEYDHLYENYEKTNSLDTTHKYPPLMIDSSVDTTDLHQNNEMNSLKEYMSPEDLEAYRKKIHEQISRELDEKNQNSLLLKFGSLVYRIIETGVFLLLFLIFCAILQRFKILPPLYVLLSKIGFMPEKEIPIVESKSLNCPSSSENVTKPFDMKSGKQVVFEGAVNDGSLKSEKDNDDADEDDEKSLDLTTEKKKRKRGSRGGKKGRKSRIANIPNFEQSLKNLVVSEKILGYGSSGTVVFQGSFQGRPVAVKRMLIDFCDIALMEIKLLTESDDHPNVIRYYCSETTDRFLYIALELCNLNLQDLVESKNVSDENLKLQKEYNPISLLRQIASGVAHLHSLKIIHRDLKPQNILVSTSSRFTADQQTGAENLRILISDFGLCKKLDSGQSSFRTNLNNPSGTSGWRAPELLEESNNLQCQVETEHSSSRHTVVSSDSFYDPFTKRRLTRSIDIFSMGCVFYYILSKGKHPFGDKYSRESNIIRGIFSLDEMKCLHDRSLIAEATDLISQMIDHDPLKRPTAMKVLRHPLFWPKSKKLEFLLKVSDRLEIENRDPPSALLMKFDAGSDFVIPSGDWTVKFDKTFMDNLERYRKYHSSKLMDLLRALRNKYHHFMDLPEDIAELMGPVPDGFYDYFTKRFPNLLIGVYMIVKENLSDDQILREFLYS

Turning to `O=Cc1cc(I)cc(I)c1O` [DISA1, 3,5-diiodosalicylaldehyde, reference compound], in test [1], the “Cmax (concentration inducing at most 20% inhibition of fungal growth)” value stood at 2 µM, the “CTP (retained non-fungicidal concentration applied in planta)” value is 2 µM and the IC50 came out at 5.3 ± 0.1 µM. Besides, in test [2] (B. cinerea), the “Cmax (concentration inducing at most 20% inhibition of fungal growth)” value stood at 2.5 µM and the “CTP (retained non-fungicidal concentration applied in planta)” value is 2.5 µM. In addition, in test [2], the IC50 was 6.3 ± 0.7 µM.
Turning to `CC(C)=CCc1c(O)cc2oc3cc(O)c(O)c(CC=C(C)C)c3c(=O)c2c1O` [γ-mangostin, 1,3,6,7-tetrahydroxy-2,8-bis(3-methylbut-2-enyl)xanthen-9-one], in test [1], the “Cmax (concentration inducing at most 20% inhibition of fungal growth)” value was 5 µM, the “CTP (retained non-fungicidal concentration applied in planta)” value came out at 5 µM and the IC50 was found to be 12.2 ± 0.2 µM. In addition, in test [3], the “IRE1 inhibition (in words)” value is on record as “inhibit IRE1 in a micromolar scale”, the “μ (% activation) ± σ” value is 8.7 ± 5.5% and the IC50 amounted to 7.3 µM. Moreover, in test [2] (B. cinerea), the “Cmax (concentration inducing at most 20% inhibition of fungal growth)” value was determined as 100 µM and the “CTP (retained non-fungicidal concentration applied in planta)” value amounted to 25 µM. For the same compound, the IC50 in test [2] is more than 100 µM. For the same compound, the “effect on the antifungal effects of ε-viniferin (in words)” value in test [2] (γ-mangostin 100 μM + ε-viniferin 100 μM, B. cinerea, 35 hours) is on record as “potentiating effect”.
Turning to `CC(C)=CCc1c(O)cc2oc3c(O)cccc3c(=O)c2c1O` [1,3,5-trihydroxy-2-prenylxanthone, 1,3,5-trihydroxy-2-(3-methylbut-2-enyl)xanthen-9-one], in test [1], the “Cmax (concentration inducing at most 20% inhibition of fungal growth)” value stood at 100 µM, the “CTP (retained non-fungicidal concentration applied in planta)” value came to 50 µM and the IC50 is more than 100 µM. In addition, the “IRE1 inhibition (in words)” value in test [3] was “inhibit IRE1 in a micromolar scale”. Also, the “μ (% activation) ± σ” value in test [3] (setting [4]) is reported as 57.4 ± 4.9%. For the same compound, in test [2] (B. cinerea), the “Cmax (concentration inducing at most 20% inhibition of fungal growth)” value is 100 µM and the “CTP (retained non-fungicidal concentration applied in planta)” value was found to be 25 µM. In test [2], the IC50 is more than 100 µM.
Take `COc1c(O)ccc2oc3ccccc3c(=O)c12` [1-methoxy-2-hydroxy-xanthone]: in test [3] (setting [4]), the “μ (% activation) ± σ” value is listed as 97.9 ± 3.6%.
On the same count and under the same terms, the figure for `COc1ccc2cc1Oc1ccc(cc1)C[C@H]1c3c(cc4c(c3Oc3cc5c(cc3OC)CCN(C)[C@@H]5C2)OCO4)CCN1C` [Cepharantine] is 102.2 ± 4.0%; for `COc1ccc2c(c[n+](C)c3c4cc5c(cc4ccc23)OCO5)c1OC` [Chelerythrine] it is 103.2 ± 3.6%.
Still for that read-out and setting: then `COc1cc(C(=O)O)cc(OC)c1O` [Syringic acid], with 97.8 ± 3.1%; and `COc1c(O)cc2oc3cc(O)c(CC=C(C)C)c(O)c3c(=O)c2c1CC=C(C)C` [α-mangostin], with 67.5 ± 0.2%.
Consider `CC(C)=CCc1c(O)cc(O)c2c(=O)c3cccc(O)c3oc12` [1,3,5-trihydroxy-4-prenylxanthone, 1,3,5-trihydroxy-4-(3-methylbut-2-enyl)xanthen-9-one], for which, in test [1], the “Cmax (concentration inducing at most 20% inhibition of fungal growth)” value is 10 µM, the “CTP (retained non-fungicidal concentration applied in planta)” value came to 10 µM and the IC50 was 41.3 ± 3.7 µM. Besides, in test [3], the “IRE1 inhibition (in words)” value was “inhibit IRE1 in a micromolar scale” and the IC50 came out at 12.8 µM. Further, the “μ (% activation) ± σ” value in test [3] (setting [4]) was 70.9 ± 3.2%. Further, in test [2] (B. cinerea), the “Cmax (concentration inducing at most 20% inhibition of fungal growth)” value is 100 µM and the “CTP (retained non-fungicidal concentration applied in planta)” value is 25 µM. Further, in test [2], the IC50 is more than 100 µM.
With `CC(C)=C/C=C/C(C)=C/[C@H]1CC[C@@H]2[C@@]3(C)CC[C@H](O)C(C)(C)[C@@H]3CC[C@@]2(C)[C@@]12COC(=O)C2` [Ebelin lactone], the “μ (% activation) ± σ” value in test [3] (setting [4]) was found to be 102.5 ± 0.9%.
As for Steponine, the “μ (% activation) ± σ” value in test [3] (setting [4]) is 103.4 ± 1.3%.
